Results: ChEMBL document CHEMBL4118174, “The discovery of VU0486846: steep SAR from a series of M1 PAMs based on a novel benzomorpholine core” (Bioorg Med Chem Lett, 2018)
Where a chain is given by its changes, count along the chain named.

Columns and labels:
[1] = target: T1, Muscarinic acetylcholine receptor M1 (Homo sapiens, UniProt P11229); assay: Positive allosteric modulation of human muscarinic acetylcholine M1 receptor expressed in CHO cells assessed as potentiation of acetylcholine-induced calcium mobilization; type: functional, cell-based
T1 sequence (P11229 whole entry): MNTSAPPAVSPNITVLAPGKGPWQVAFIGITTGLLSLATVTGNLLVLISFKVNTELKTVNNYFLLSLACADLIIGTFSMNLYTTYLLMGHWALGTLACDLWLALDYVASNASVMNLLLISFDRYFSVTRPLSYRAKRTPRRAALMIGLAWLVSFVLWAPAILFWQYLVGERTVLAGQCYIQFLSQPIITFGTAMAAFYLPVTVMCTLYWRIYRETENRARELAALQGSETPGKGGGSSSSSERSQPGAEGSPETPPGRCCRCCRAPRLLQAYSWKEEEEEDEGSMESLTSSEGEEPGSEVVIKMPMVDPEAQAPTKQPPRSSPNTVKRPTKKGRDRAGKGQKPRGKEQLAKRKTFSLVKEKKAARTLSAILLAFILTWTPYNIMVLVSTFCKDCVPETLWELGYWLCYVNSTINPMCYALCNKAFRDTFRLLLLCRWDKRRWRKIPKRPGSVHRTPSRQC

[2] = target: T2, Muscarinic acetylcholine receptor M1 (Homo sapiens) (UniProt P11229); assay: Positive allosteric modulation of human muscarinic acetylcholine M1 receptor expressed in CHO cells assessed as potentiation of acetylcholine-induced calcium mobilization relative to acetylcholine; type: functional, cell-based
T2 sequence (whole entry): T1 sequence (P11229 whole entry)

[3] = Fraction unbound in human plasma; type: ADME, cell-free
[4] = Fraction unbound in rat plasma; type: ADME, cell-free
[5] = Brain to plasma permeability coefficient, Kp of compound in Sprague-Dawley rat at 0.20 to 0.25 mg/kg administered as iv cassette dose measured at 0.25 hrs post dose; type: ADME, organism-based; conditions: for Kp: brain, 0.25 h; for Kp at 0.25 h: Sprague-Dawley, brain and plasma
[6] = target: T1, Muscarinic acetylcholine receptor M1; assay: Positive allosteric modulation of human muscarinic acetylcholine M1 receptor; type: functional
Rattus norvegicus = assay: Cognitive enhancing effect in po dosed rat by novel object recognition test; type: functional; conditions: read-out: MED
[7] = target: T3, Muscarinic acetylcholine receptor M1 (Rattus norvegicus, UniProt P08482); assay: Positive allosteric modulation of rat muscarinic acetylcholine M1 receptor; type: functional
T3 sequence (P08482 whole entry): T1 sequence (P11229 whole entry) with A5V, T254S, P309S, R320K, A337G, I413V

[8] = Fraction unbound in plasma (unknown origin); type: ADME, cell-free
[9] = Brain to plasma permeability coefficient, Kp of compound in mouse; type: ADME
[10] = target: T1, Muscarinic acetylcholine receptor M1; assay: Positive allosteric modulation of human muscarinic acetylcholine M1 receptor expressed in CHO-NFAT cells assessed as potentiation of acetylcholine-induced calcium mobilization after 4 hrs by CCF4-AM dye-based assay; type: functional, cell-based

Compound	EC50 ([1]; read-out: EC50)	%max [2]	also measured
COc1cccnc1NC(=O)C1CN(Cc2ccc(-n3cccn3)cc2)c2ccccc2O1 (configuration not stated)	1.7 µM	80%	EC50 ([1]; read-out: pEC50 (converted)): 1.62 µM
O=C(NCC(O)C(F)(F)F)C1CN(Cc2ccc(-n3cccn3)cc2)c2ccccc2O1 (configuration not stated)	2.2 µM	78%	–
O=C(N[C@H]1CCCC[C@@H]1O)C1CN(Cc2ccc(-n3cccn3)cc2)c2c(F)cccc2O1 (some centres not stated)	3.18 to 3.2 µM	76%	EC50 ([1]; read-out: pEC50 (converted)): 3.09 µM; fraction unbound [3]: < 0.01; fraction unbound [4]: < 0.01; Kp [5]: 0.3 to 0.4
O=C(N[C@H]1CCCC[C@@H]1O)[C@H]1CN(Cc2ccc(-n3cccn3)cc2)c2ccccc2O1	–	–	EC50 [6]: 0.25 µM; minimal effective dose (Rattus norvegicus): 3 mg/kg; EC50 [7]: 0.25 µM
O=C(N[C@H]1CCCC[C@@H]1O)C1CN(Cc2ccc(C3CC3)nc2)c2ccccc2O1 (some centres not stated)	2.5 µM	90%	EC50 ([1]; read-out: pEC50 (converted)): 2.24 µM
O=C(N[C@H]1CCCC[C@@H]1O)C1CN(Cc2ccc(-n3cccc3)cc2)c2ccccc2O1 (mixture of isomers)	2.1 µM	81%	Fu [8]: < 0.001
O=C(N[C@H]1CCCC[C@@H]1O)C1CN(Cc2ccc(-n3cccn3)cc2)c2ccc(F)cc2O1 (some centres not stated)	2.2 µM	80%	fraction unbound [3]: < 0.01; fraction unbound [4]: < 0.01; Kp [5]: 0.3 to 0.4
O=C(N[C@H]1CCCCC1=O)C1CN(Cc2ccc(-n3cccn3)cc2)c2ccccc2O1 (some centres not stated)	2.7 µM	78%	–
Cn1nccc1-c1ccc(CN2CC(C(=O)N[C@H]3CCCC[C@@H]3O)Oc3ccccc32)cn1 (some centres not stated)	1.3 µM	94%	–
O=C(NC1CCCCC1)C1CN(Cc2ccc(-n3cccn3)cc2)c2ccccc2O1 (configuration not stated)	> 10 µM	35%	Kp at 0.25 h [5]: 1.1
O=C(NC1CCOCC1)C1CN(Cc2ccc(-n3cccn3)cc2)c2ccccc2O1 (configuration not stated)	6.6 µM	69%	Kp at 0.25 h [5]: 1
CC1(C(=O)N[C@H]2CCCC[C@@H]2O)CN(Cc2ccc(-n3cccn3)cc2)c2ccccc2O1 (mixture of isomers)	7.3 µM	61%	–
Cc1ccc(Cc2cc3c(=O)n([C@H]4CCCC[C@@H]4O)cnc3c3ccccc23)cn1 [MK-7622]	–	–	EC50 [10]: < 0.1 µM
O=C(Nc1ncccc1F)C1CN(Cc2ccc(-n3cccn3)cc2)c2ccccc2O1 (configuration not stated)	2.3 µM	81%	–
O=C(N[C@H]1CCCC[C@@H]1O)C1CN(Cc2ccc(C(F)(F)F)nc2)c2ccccc2O1 (some centres not stated)	3.7 µM	84%	–
O=C(N[C@H]1CCCC[C@@H]1O)C1Cc2ccccc2N(Cc2ccc(-n3cccn3)cc2)C1 (mixture of isomers)	1.4 µM	75%	–
CC(O)(CNC(=O)C1CN(Cc2ccc(-n3cccn3)cc2)c2ccccc2O1)C1CC1 (configuration not stated)	1.9 µM	80%	–
O=C(N[C@H]1CCCC[C@@H]1O)C1CN(Cc2ccc(Cl)nc2)c2ccccc2O1 (some centres not stated)	7.6 µM	73%	EC50 ([1]; read-out: pEC50 (converted)): 7.08 µM
CC(C)(O)CNC(=O)C1CN(Cc2ccc(-n3cccn3)cc2)c2ccccc2O1 (configuration not stated)	6.4 µM	60%	EC50 ([1]; read-out: pEC50 (converted)): 5.89 µM
O=C(N[C@H]1CCCC[C@@H]1O)C1CN(Cc2ccc(Br)nc2)c2ccccc2O1 (some centres not stated)	1.2 µM	91%	EC50 ([1]; read-out: pEC50 (converted)): 1.07 µM
O=C(N[C@H]1CCCC[C@@H]1O)C1CN(Cc2ccc(-n3cccn3)cc2)c2cc(Cl)ccc2O1 (mixture of isomers)	2.8 µM	86%	Fu [8]: < 0.001
NC1CCCCC1NC(=O)C1CN(Cc2ccc(-n3cccn3)cc2)c2ccccc2O1 (configuration not stated)	2.3 µM	62%	–
CN(C)c1ccc(CN2CC(C(=O)N[C@H]3CCCC[C@@H]3O)Oc3ccccc32)cn1 (some centres not stated)	3.8 µM	89%	–
O=C(N[C@H]1CCCC[C@@H]1O)C1CN(Cc2ccc(-n3cccn3)cc2F)c2ccccc2O1 (mixture of isomers)	1.6 µM	88%	Fu [8]: < 0.001

Continued, in another order:

EC50 ([1]; read-out: EC50)	%max [2]	Compound	also measured
1.2 µM	77%	O=C(N[C@H]1CCC[C@@H]1O)C1CN(Cc2ccc(-n3cccn3)cc2)c2ccccc2O1 (some centres not stated)	Kp at 0.25 h [5]: 0.09
0.92 µM	77%	O=C(N[C@H]1CCCC[C@@H]1O)C1CN(Cc2ccc(-n3cccn3)cc2)c2ccccc2O1 (mixture of isomers)	Kp [9]: 0.7; fraction unbound [3]: ≥ 0.11; Fu [4]: > 0.11; Kp [5]: 0.17
0.5 µM	94%	O=C(N[C@H]1CCCC[C@@H]1O)C1CN(Cc2ccc(-n3cccc3)nc2)c2ccccc2O1 (some centres not stated)	–
0.71 µM	75%	O=C(Nc1ncccc1O)C1CN(Cc2ccc(-n3cccn3)cc2)c2ccccc2O1 (configuration not stated)	EC50 ([1]; read-out: pEC50 (converted)): 0.692 µM; Kp at 0.25 h [5]: 0.11
0.22 µM	84%	Cn1cc(-c2ccc(CN3CC(C(=O)N[C@H]4CCCC[C@@H]4O)Oc4ccccc43)cn2)cn1 (some centres not stated)	–
0.85 µM	85%	Cc1ccc(CN2CC(C(=O)N[C@H]3CCCC[C@@H]3O)Oc3ccccc32)cn1 (some centres not stated)	EC50 ([1]; read-out: pEC50 (converted)): 0.813 µM
0.78 µM	92%	O=C(N[C@H]1CCCC[C@@H]1O)C1CN(Cc2ccc(-n3cccn3)nc2)c2ccccc2O1 (mixture of isomers)	EC50 ([1]; read-out: pEC50 (converted)): 0.708 µM; Fu [8]: < 0.001
0.14 µM	89%	O=C(N[C@H]1CCCC[C@@H]1O)C1CN(Cc2ccc(-n3cccn3)cc2)c2cccc(F)c2O1 (some centres not stated)	Kp [5]: 0.3 to 0.4
0.7 µM	89%	C=Cc1ccc(CN2CC(C(=O)N[C@H]3CCCC[C@@H]3O)Oc3ccccc32)cn1 (some centres not stated)	–
0.67 µM	91%	Cc1ccn(-c2ccc(CN3CC(C(=O)N[C@H]4CCCC[C@@H]4O)Oc4ccccc43)cn2)n1 (some centres not stated)	–
0.29 µM	87%	O=C(N[C@H]1CCCC[C@@H]1O)C1CN(Cc2ccc(-n3ccnc3)nc2)c2ccccc2O1 (some centres not stated)	–
0.19 µM	91%	O=C(N[C@H]1CCOC[C@@H]1O)C1CN(Cc2ccc(-n3cccn3)cc2)c2ccccc2O1 (some centres not stated)	Kp at 0.25 h [5]: 0.08
0.32 µM	88%	O=C(N[C@H]1CCCC[C@@H]1O)C1CN(Cc2ccc(-n3cccn3)cc2)c2cc(F)ccc2O1 (some centres not stated)	EC50 ([1]; read-out: pEC50 (converted)): 0.309 µM; fraction unbound [3]: < 0.01; fraction unbound [4]: < 0.01; Kp [5]: 0.3 to 0.4
